Source: patent US20260373119A1, “NOVEL COMPOUND, AND COMPOSITION FOR PREVENTING OR TREATING HER2-POSITIVE CANCER, COMPRISING SAME” (EWHA UNIVERSITY - INDUSTRY COLLABORATION FOUNDATION, priority 2022, published 2026)
Values after ≈ are worked out from the molar mass of the structure shown.

Assays:
c-RAF = c-RAF (Homo sapiens, UniProt P04049); assay: kinase profiling, c-RAF; type: biochemical; conditions: read-out: In vitro kinase inhibitory activity (%)
Experimental: (§1) Kinase inhibitory activity of the candidate compound at 10 μM and 25 μM was assessed using Eurofins Kinase Profiling Services. Inhibitory effects on c-RAF, EGFR, ErbB2, ErbB4, and PI3 kinase were analyzed according to the Kinase Profiler Service Assay protocol.

ErbB4 = ErbB4 (Homo sapiens, UniProt Q15303); assay: kinase profiling, ErbB4; type: biochemical; conditions: read-out: In vitro kinase inhibitory activity (%)
Experimental: as §1

[1] = biological target: HER family kinases (EGFR, ErbB2, and ErbB4) or kinases associated with the AKT/MAPK pathway (PI3 kinase and c-RAF); assay: kinase profiling, summary over the panel; type: biochemical; conditions: 10 μM and 25 μM
Experimental: as §1

[2] = system: c-PARP, c-caspase 7, bcl-2; assay: pro- and anti-apoptotic marker levels; type: cell-based
Experimental: For western blot analysis, cells were seeded in a 6-well plate and lysed in 1×RIPA lysis buffer (Cell Signaling, USA) containing 1% 0.1 M [COMPOUND LEFT OUT] and 1% 100× protease inhibitor cocktail solution (Genedepot, USA). Total protein levels were standardized using the Pierce™ BCA Protein Assay Kit (Thermo Fisher Scientific, USA) and a microplate reader (Tecan Group Ltd., Switzerland). A total of 20 μg of protein was loaded onto a 10-15% SDS-PAGE acrylamide gel and transferred to a 0.2 μm PVDF membrane (Pall Life Science, USA). The membrane was blocked with 5% skim milk or 5% BSA, and the membrane was cultured with primary antibodies (purchased from Thermo Fisher, Cell Signaling, Santa Cruz, Novus, or MBL) at room temperature for 3 hours or overnight at 4 °C. The blot was washed three times with Tris-buffered saline containing 0.1% Tween20 (1×TBST) and incubated with an HRP-conjugated secondary antibody (GeneTex, USA). Protein bands were detected using ECL solution reagents (GE Healthcare, USA) and the LAS-3000 imaging system (Fuji Photo Film Co., Ltd., Japan), and captured images were analyzed using Multi-Gauge software (Fuji Photo Film Co. Ltd.). […]
Specifically, 5×10^5 NCI-N87 cells were seeded in 60 mm dishes and cultured until they reached 70-80% confluence. […] Cell cycle analysis was performed using a fluorescence-activated cell sorting (FACS) device (BD Biosciences, USA).

solubility = type: physicochemical; conditions: pH 7

Sequence of ErbB4 (Q15303 26-1308): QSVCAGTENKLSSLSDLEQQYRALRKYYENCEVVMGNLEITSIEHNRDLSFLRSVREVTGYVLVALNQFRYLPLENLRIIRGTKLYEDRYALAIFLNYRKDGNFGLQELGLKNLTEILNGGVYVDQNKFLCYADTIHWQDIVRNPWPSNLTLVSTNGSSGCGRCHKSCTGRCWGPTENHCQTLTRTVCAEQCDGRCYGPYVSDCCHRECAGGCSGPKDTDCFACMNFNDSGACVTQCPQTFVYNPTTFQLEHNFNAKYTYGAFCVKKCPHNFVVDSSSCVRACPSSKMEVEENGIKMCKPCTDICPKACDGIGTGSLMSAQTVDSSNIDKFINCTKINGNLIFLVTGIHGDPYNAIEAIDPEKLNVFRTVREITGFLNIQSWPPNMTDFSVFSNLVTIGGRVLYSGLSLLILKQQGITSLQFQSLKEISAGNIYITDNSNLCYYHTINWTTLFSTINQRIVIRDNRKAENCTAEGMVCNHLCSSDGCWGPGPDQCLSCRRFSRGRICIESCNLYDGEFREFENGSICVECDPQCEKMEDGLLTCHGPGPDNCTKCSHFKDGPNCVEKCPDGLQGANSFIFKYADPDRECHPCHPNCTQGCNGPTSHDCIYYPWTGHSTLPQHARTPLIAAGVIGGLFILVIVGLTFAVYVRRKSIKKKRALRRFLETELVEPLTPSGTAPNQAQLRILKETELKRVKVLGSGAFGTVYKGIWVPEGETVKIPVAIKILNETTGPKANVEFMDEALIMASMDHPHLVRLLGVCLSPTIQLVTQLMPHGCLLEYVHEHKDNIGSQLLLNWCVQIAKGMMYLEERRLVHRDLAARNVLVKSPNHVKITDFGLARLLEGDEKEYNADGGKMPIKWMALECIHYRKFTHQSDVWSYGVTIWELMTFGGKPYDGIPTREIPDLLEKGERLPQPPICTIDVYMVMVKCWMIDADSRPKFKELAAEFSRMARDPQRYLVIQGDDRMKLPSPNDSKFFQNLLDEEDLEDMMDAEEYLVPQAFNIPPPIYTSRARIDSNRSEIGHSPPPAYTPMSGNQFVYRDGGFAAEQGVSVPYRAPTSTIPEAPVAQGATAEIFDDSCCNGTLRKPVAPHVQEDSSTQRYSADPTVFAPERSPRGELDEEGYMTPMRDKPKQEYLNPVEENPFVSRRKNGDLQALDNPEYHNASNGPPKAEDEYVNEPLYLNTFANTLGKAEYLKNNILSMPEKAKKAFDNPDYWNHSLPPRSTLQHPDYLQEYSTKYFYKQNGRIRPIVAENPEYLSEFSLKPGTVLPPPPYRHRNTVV
Sequence of c-RAF (P04049 whole entry): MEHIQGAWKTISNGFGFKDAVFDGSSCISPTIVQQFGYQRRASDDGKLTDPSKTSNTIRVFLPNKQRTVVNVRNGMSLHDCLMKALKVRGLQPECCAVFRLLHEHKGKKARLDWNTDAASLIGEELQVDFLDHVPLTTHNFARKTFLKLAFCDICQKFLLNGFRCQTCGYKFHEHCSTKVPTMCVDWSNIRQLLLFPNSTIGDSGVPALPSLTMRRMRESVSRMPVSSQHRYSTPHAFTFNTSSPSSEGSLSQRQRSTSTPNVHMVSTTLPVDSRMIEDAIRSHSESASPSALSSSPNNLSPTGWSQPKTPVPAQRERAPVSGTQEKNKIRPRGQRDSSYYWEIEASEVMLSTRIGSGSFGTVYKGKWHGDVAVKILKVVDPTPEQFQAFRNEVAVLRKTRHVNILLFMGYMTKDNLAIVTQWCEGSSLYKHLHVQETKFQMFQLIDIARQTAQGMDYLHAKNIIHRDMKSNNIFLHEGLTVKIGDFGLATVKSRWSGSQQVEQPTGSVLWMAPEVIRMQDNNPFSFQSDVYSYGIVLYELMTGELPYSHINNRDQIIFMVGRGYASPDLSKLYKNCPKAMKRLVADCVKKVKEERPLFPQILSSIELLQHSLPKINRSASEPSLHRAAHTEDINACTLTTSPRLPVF

CC(=O)N1N=C(c2cccc(O)c2)CC1c1ccc(Cl)cc1 (centres unmarked) [Compound 15, 1-[5-(4-Chlorophenyl)-3-(3-hydroxyphenyl)-4,5-dihydropyrazol-1-yl]-ethanone]
inhibition at 10 µM (c-RAF; 10 μM): 3% | inhibition at 25 µM (c-RAF; 25 μM): 10% | inhibition at 10 µM (ErbB4; ErbB4, 10 μM): 0% | inhibition at 25 µM (ErbB4; ErbB4, 25 μM): 0% | kinase inhibitory activity in words [1]: no significant inhibitory activity | anti-apoptotic marker bcl-2 [2]: reduced the levels of the anti-apoptotic marker bcl-2 | pro-apoptotic markers c-PARP and c-caspase 7 [2]: induced an increase in the pro-apoptotic markers c-PARP and c-caspase 7 | solubility (solubility): 103.2 ± 0.6 µg/mL (≈ 328 µM)
